Results taken from US20210330611A1, “THERAPY FOR NEUROLOGICAL DISEASES/DISORDERS” (priority 2020, published 2021).
Read-outs that look alike come from different tables or passages of the source.

Assays:
[1] = in vitro; settings: rat, Cell Toxicity IC50 (uM) [cFib assay]
[2] = test system: primary rat microglia; experiment: Cell toxicity (dead cells, size <150 μm2) in LPS assay; settings: for LPS % cell toxicity: primary microglia HTS, LPS stimulation, decreased size (<150 μm^2) as marker of toxicity; for IC50: read-out: Cell Toxicity IC50 (uM) [LPS assay], LPS assay
[3] = in vitro; settings: rat
[4] = test system: primary rat microglia; experiment: Cell toxicity (dead cells, size <150 μm2) in coated fibrin (cFib) assay; settings: primary microglia HTS, fibrin stimulation; decreased size (<150 μm^2) as marker of toxicity;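 for Fibrin % cell toxicity: share of dead cells sized under 150 µm2 at 10 µM in fibrin-stimulated microglia HTS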
[5] = test system: fibrin- and LPS-induced microglia activation; experiment: cells; assay type: cell-based, rat; settings: for inhibition at 10 µM: Rattus norvegicus, Microglia
[6] = test system: fibrin-induced microglia activation; experiment: Image-based assay of fibrin-induced microglia activation (HTS and dose response); assay type: cell-based, rat; settings: for IC50 / inhibition at 10 µM: Rattus norvegicus, Microglia; for inhibition at 10 µM: primary microglia HTS, fibrin stimulation, increased cell size (>800 μm^2) as marker of activation, read-out: Fibrin % inhibition
[7] = test system: LPS-induced microglia activation; experiment: Image-based assay of LPS-induced microglia activation (HTS and dose response); assay type: cell-based, rat; settings: Rattus norvegicus, Microglia; for inhibition at 10 µM: primary microglia HTS, LPS stimulation, increased cell size (>800 μm^2) as marker of activation, read-out: LPS % inhibition
[8] = HTS of 1907 compounds, quadrant by fibrin and LPS inhibition
[9] = Table 3, read-out: Cherry-picked Hit (Suppl. Table 7)
[10] = HTS hit classification, read-out: Hit
[11] = quadrant by fibrin and LPS inhibition in HTS of 1907 compounds
[12] = 48 h, Table 1, dose response 0.001-20 μM, triplicates, primary rat microglia, 48 h, read-out: Fibrin IC50
[13] = Table 3, read-out: Fibrin IC50 (uM) (Suppl. Table 7)
[14] = dose response, fibrin-induced microglia activation, read-out: Fibrin IC50
[15] = fibrin-induced microglia activation, dose response, read-out: Fibrin IC50 (uM) (Suppl. Table 7)
[16] = 48 h, Table 1, dose response 0.001-20 μM, triplicates, primary rat microglia, 48 h, read-out: LPS IC50
[17] = LPS-induced microglia activation, dose response, read-out: LPS IC50 (uM) (Suppl. Table 7)
[18] = Table 3, read-out: LPS IC50 (uM) (Suppl. Table 7)
[19] = dose response, LPS-induced microglia activation, read-out: LPS IC50

SMILES: Cc1ccc(S(=O)(=O)NC(=O)NN2CCCCCC2)cc1 [Tolazamide, reference compound]
- IC50 ([1]; Table 3): > 20 µM
- IC50 ([1]; cFib assay): > 20 µM
- LPS % cell toxicity [2]: 0%
- IC50 [2]: > 20 µM
- IC50 [3]: > 20 µM
- Fibrin % cell toxicity [4]: 1%
- Quadrant (FIG. 5b) [5, 8]: Q3
- inhibition at 10 µM [5, 9]: > 50%
- inhibition at 10 µM [5, 10]: > 50%
- Quadrant (FIG. 5b) ([5]; Table 1, screen at 10 μM): Q3
- Quadrant (FIG. 5b) ([5]; Table 3, screen at 10 μM): Q3
- Quadrant (FIG. 5b) [5, 11]: Q3
- Fibrin Selectivity [6]: 2
- Fibrin Selectivity (LOG10) [6]: 0.23
- IC50 [6, 12]: 12 µM
- IC50 [6, 13]: 12 µM
- IC50 [6, 14]: 12 µM
- IC50 [6, 15]: 12 µM
- inhibition at 10 µM [6]: 88%
- IC50 [7, 16]: > 20 µM
- inhibition at 10 µM ([7]; 48 h): 42%
- IC50 [7, 17]: > 20 µM
- IC50 [7, 18]: > 20 µM
- IC50 [7, 19]: > 20 µM

SMILES: Cc1cccc(N(C)C(=S)Oc2ccc3ccccc3c2)c1 [Tolnaftate, reference compound]
- IC50 ([1]; Table 3): > 20 µM
- IC50 ([1]; cFib assay): > 20 µM
- LPS % cell toxicity [2]: 1%
- IC50 [2]: > 20 µM
- IC50 [3]: > 20 µM
- Fibrin % cell toxicity [4]: 1%
- Quadrant (FIG. 5b) [5, 8]: Q2
- inhibition at 10 µM [5, 9]: > 50%
- inhibition at 10 µM [5, 10]: > 50%
- Quadrant (FIG. 5b) ([5]; Table 1, screen at 10 μM): Q2
- Quadrant (FIG. 5b) ([5]; Table 3, screen at 10 μM): Q2
- Quadrant (FIG. 5b) [5, 11]: Q2
- IC50 [6, 12]: 2 µM
- IC50 [6, 13]: 2 µM
- IC50 [6, 14]: 2 µM
- IC50 [6, 15]: 2 µM
- inhibition at 10 µM [6]: 76%
- inhibition at 10 µM ([7]; 48 h): 60%

SMILES: CC(=O)OCC(=O)[C@@]12N=C(C)O[C@@H]1C[C@H]1[C@@H]3CCC4=CC(=O)C=C[C@]4(C)[C@H]3[C@@H](O)C[C@@]12C [Deflazacort, reference compound]
- IC50 ([1]; Table 3): 20 µM
- IC50 ([1]; cFib assay): 20 µM
- IC50 ([1]; cFib assay, Table 6): ≥ 20 µM
- LPS % cell toxicity [2]: 4%
- IC50 [2]: > 20 µM
- IC50 ([2]; Table 6): > 20 µM
- IC50 [3]: > 20 µM
- Fibrin % cell toxicity [4]: 2%
- Quadrant (FIG. 5b) [5, 8]: Q2
- inhibition at 10 µM [5, 9]: > 50%
- inhibition at 10 µM [5, 10]: > 50%
- Quadrant (FIG. 5b) ([5]; Table 1, screen at 10 μM): Q2
- Quadrant (FIG. 5b) ([5]; Table 3, screen at 10 μM): Q2
- Quadrant (FIG. 5b) ([5]; microglia HTS, Table 6): Q2
- Quadrant (FIG. 5b) [5, 11]: Q2
- Fibrin Selectivity [6]: 42
- Fibrin Selectivity (LOG10) [6]: 1.63
- IC50 [6, 12]: < 0.001 µM
- IC50 [6, 13]: < 0.001 µM
- IC50 ([6]; Table 6, read-out: Fibrin IC50 (uM) (Suppl. Table 7)): < 0.001 µM
- IC50 [6, 14]: < 0.001 µM
- IC50 [6, 15]: < 0.001 µM
- inhibition at 10 µM [6]: 111%
- Fibrin Selectivity (LOG10) ([6]; fibrin vs LPS, LOG10, Table 6): 1.63
- Fibrin Selectivity ([6]; fibrin vs LPS, Table 6): 42
- IC50 [7, 16]: 0.04 µM
- inhibition at 10 µM ([7]; 48 h): 105%
- IC50 [7, 17]: 0.04 µM
- IC50 [7, 18]: 0.04 µM
- IC50 ([7]; Table 6, read-out: LPS IC50 (uM) (Suppl. Table 7)): 0.04 µM
- IC50 [7, 19]: 0.04 µM
